Laboratory results published in patent US9204653B2, “5-fluoro pyrimidine derivatives” (DOW AGROSCIENCES LLC, priority 2008, dated 2015).

System: Mycosphaerella graminicola; Anamorph: Septoria tritici; Bayer Code SEPTTR
Assay: Leaf blotch of wheat, foliar fungicide treatment, one day protectant (1DP) or three day curative (3DC)
Format: in vivo, Septoria tritici on wheat plants (variety Yuma)
Details: Zymoseptoria tritici, 24 h, % disease control rating, one day protectant

Row | Structure (SMILES) | pest or weed control at 50 ppm [%] | pest or weed control at 200 ppm [%]
1 | Fc1cnc(OCc2cccs2)nc1NCc1cccs1 [Compound 831] | 51 to 75 | 76 to 100
2 | O=c1nc(NCc2ccccc2F)c(F)c[nH]1 [Compound 832] | 0 to 25 | 0 to 25
3 | Fc1ccc(COc2ncc(F)c(NCC(F)(F)F)n2)cc1 [Compound 833] | 26 to 50 | 51 to 75
4 | Fc1ccc(COc2ncc(F)c(NC3CC3)n2)c(F)c1 [Compound 834] | – | 76 to 100
5 | Fc1cnc(OCc2c(Cl)cccc2Cl)nc1NCc1cccs1 [Compound 835] | – | 76 to 100
6 | Cc1ccc(COc2ncc(F)c(N3CCOCC3)n2)cc1 [Compound 836] | 51 to 75 | 76 to 100
7 | Fc1cnc(OC2CCCCC2)nc1NCCc1ccccc1 [Compound 837] | 0 to 25 | 0 to 25
8 | Fc1cnc(OCc2ccc(Cl)cc2Cl)nc1NCc1cccs1 [Compound 838] | – | 76 to 100
9 | Fc1cnc(OCc2ccc3c(c2)OCO3)nc1NCc1cccs1 [Compound 839] | – | 76 to 100
10 | Fc1ccc(COc2ncc(F)c(NCc3ccc(Cl)cc3)n2)cc1 [Compound 840] | 51 to 75 | 76 to 100
11 | Fc1cnc(OC2CCCCC2)nc1NCc1ccc2c(c1)OCO2 [Compound 841] | 51 to 75 | 76 to 100
12 | Fc1cnc(OCc2ccc(Cl)cc2)nc1NCc1ccc2c(c1)OCO2 [Compound 842] | 76 to 100 | 76 to 100
13 | Fc1cnc(OCCc2ccccc2)nc1NCc1cccs1 [Compound 843] | 26 to 50 | 76 to 100
14 | Cc1ccc(COc2ncc(F)c(NCc3ccc(Cl)nc3)n2)cc1 [Compound 844] | 76 to 100 | 76 to 100
15 | Nc1nc(OCC2CCCCC2)ncc1F [Compound 846] | 0 to 25 | 26 to 50
16 | Nc1nc(OCc2c(Cl)cccc2Cl)ncc1F [Compound 847] | 76 to 100 | –
17 | Nc1nc(OC2CCCCC2)ncc1F [Compound 848] | 0 to 25 | 0 to 25
18 | COc1ncc(F)c(N)n1 [Compound 850] | 0 to 25 | 51 to 75
19 | Fc1ccc(COc2ncc(F)c(NCc3ccc(Cl)cc3)n2)cc1F [Compound 851] | 76 to 100 | 76 to 100
20 | Fc1ccccc1COc1ncc(F)c(NC2CC2)n1 [Compound 852] | 51 to 75 | 76 to 100
21 | CCOc1ncc(F)c(N)n1 [Compound 853] | 0 to 25 | 0 to 25
22 | Cc1ccc(COc2ncc(F)c(NCc3ccc4c(c3)OCO4)n2)cc1 [Compound 854] | 51 to 75 | 76 to 100
23 | Fc1cnc(OCc2ccc(OC(F)(F)F)cc2)nc1NC1CC1 [Compound 855] | – | 76 to 100
24 | Nc1nc(OCc2ccncc2)ncc1F [Compound 856] | – | 76 to 100
25 | Fc1cnc(OCc2ccco2)nc1NCc1ccc2c(c1)OCO2 [Compound 859] | 76 to 100 | 76 to 100

Row | Structure (SMILES) | pest or weed control at 50 ppm [%] | pest or weed control at 200 ppm [%]
26 | Fc1cnc(OCC(F)(F)F)nc1NCCc1ccccc1 [Compound 861] | 0 to 25 | 26 to 50
27 | Fc1cnc(OCCc2ccccc2)nc1NCCc1ccccc1 [Compound 862] | 51 to 75 | 76 to 100
28 | Fc1ccccc1CNc1nc(OCc2ccc(Cl)cc2Cl)ncc1F [Compound 863] | 76 to 100 | 76 to 100
29 | Nc1nc(OCC(F)(F)F)ncc1F [Compound 864] | 0 to 25 | 26 to 50
30 | COc1ccccc1COc1ncc(F)c(NCc2ccccc2F)n1 [Compound 865] | 26 to 50 | 76 to 100
31 | Fc1cnc(OCc2cccs2)nc1NC1CC1 [Compound 866] | 0 to 25 | 76 to 100
32 | Fc1ccc(COc2ncc(F)c(NCc3cccs3)n2)cc1 [Compound 867] | 76 to 100 | 76 to 100
33 | Fc1cnc(OCc2cc(Cl)cc(Cl)c2)nc1NCc1ccc(Cl)cc1 [Compound 868] | 51 to 75 | 76 to 100
34 | COc1ccccc1COc1ncc(F)c(NCc2cccs2)n1 [Compound 869] | – | 76 to 100
35 | Fc1cnc(OCc2cc(Cl)cc(Cl)c2)nc1NC1CC1 [Compound 870] | – | 76 to 100
36 | Cc1ccc(CNc2nc(OCCc3ccccc3)ncc2F)cc1 [Compound 871] | 0 to 25 | 26 to 50
37 | Cc1ccc(CNc2nc(OCC(F)(F)F)ncc2F)cc1 [Compound 872] | 26 to 50 | 51 to 75
38 | Fc1cnc(OCc2ccco2)nc1NCc1ccc(Cl)nc1 [Compound 873] | 0 to 25 | 0 to 25
39 | Fc1cnc(OCc2cccs2)nc1NCc1ccc(Cl)nc1 [Compound 874] | 0 to 25 | 0 to 25
40 | Cc1ccc(CNc2nc(OC3CCCCC3)ncc2F)cc1 [Compound 875] | 0 to 25 | 76 to 100
41 | Fc1cnc(OCc2c(Cl)cccc2Cl)nc1NC1CC1 [Compound 877] | – | 76 to 100
42 | Nc1nc(OCc2cccc(Oc3ccccc3)c2)ncc1F [Compound 878] | 76 to 100 | 76 to 100
43 | Fc1cnc(OCc2ccccc2Cl)nc1NCc1ccc(Cl)cc1 [Compound 879] | 76 to 100 | 76 to 100
44 | Fc1cnc(OCCc2ccccc2)nc1NCc1ccc(Cl)nc1 [Compound 880] | 0 to 25 | 26 to 50
45 | Cc1ccc(COc2ncc(F)c(NC3CC3)n2)cc1 [Compound 881] | 76 to 100 | 76 to 100
46 | Fc1ccc(COc2ncc(F)c(NCc3ccc4c(c3)OCO4)n2)cc1 [Compound 882] | 76 to 100 | 76 to 100
47 | Fc1ccccc1CNc1nc(OCc2ccc(Cl)c(Cl)c2)ncc1F [Compound 883] | 76 to 100 | 76 to 100
48 | CCOCCOc1cccc(COc2ncc(F)c(NC(C)=O)n2)c1 [Compound 884] | 76 to 100 | 76 to 100
49 | Fc1cnc(OCc2ccc(Cl)cc2)nc1NCC(F)(F)F [Compound 885] | 26 to 50 | 51 to 75
50 | Cc1cnc(CNc2nc(OCc3ccc(Cl)cc3)ncc2F)cn1 [Compound 886] | 76 to 100 | 76 to 100

Row | Structure (SMILES) | pest or weed control at 50 ppm [%] | pest or weed control at 200 ppm [%]
51 | Fc1cnc(OCc2cccc(Cl)c2)nc1NC1CC1 [Compound 887] | – | 76 to 100
52 | Fc1ccccc1CNc1nc(OCc2ccccn2)ncc1F [Compound 888] | 0 to 25 | 51 to 75
53 | Fc1ccc(COc2ncc(F)c(NCc3cccs3)n2)cc1F [Compound 890] | – | 76 to 100
54 | Nc1nc(OCc2ccccn2)ncc1F [Compound 891] | 76 to 100 | 76 to 100
55 | Cc1ccc(COc2ncc(F)c(NCc3ccc(Cl)cc3)n2)cc1 [Compound 892] | 51 to 75 | 76 to 100
56 | Fc1ccccc1CNc1nc(OCc2ccccc2Cl)ncc1F [Compound 893] | 76 to 100 | 76 to 100
57 | Fc1cnc(OCc2ccc(C(F)(F)F)cc2)nc1NCc1cccs1 [Compound 896] | – | 76 to 100
58 | Fc1ccc(COc2ncc(F)c(N3CCOCC3)n2)cc1 [Compound 897] | 0 to 25 | 51 to 75
59 | Fc1cnc(OCc2ccco2)nc1NC1CC1 [Compound 898] | 0 to 25 | 0 to 25
60 | Fc1cnc(OCc2ccco2)nc1NCc1cccs1 [Compound 899] | 26 to 50 | 76 to 100
61 | Cc1cnc(CNc2nc(OCc3ccc(F)cc3)ncc2F)cn1 [Compound 900] | 51 to 75 | 76 to 100
62 | Fc1ccc(COc2ncc(F)c(NCc3ccc(Cl)nc3)n2)cc1 [Compound 901] | 51 to 75 | 76 to 100
63 | Fc1cnc(OCc2ccncc2)nc1NCc1cccs1 [Compound 902] | – | 76 to 100
64 | Fc1cnc(OC2CCCCC2)nc1NCc1ccc(Cl)cc1 [Compound 903] | 0 to 25 | 76 to 100
65 | Fc1cnc(OCCc2ccccc2)nc1NCc1ccc2c(c1)OCO2 [Compound 904] | 0 to 25 | 26 to 50
66 | Fc1cnc(OCC(F)(F)F)nc1NCc1ccc(Cl)cc1 [Compound 905] | 26 to 50 | 51 to 75
67 | COc1ccc(COc2ncc(F)c(NCc3cccs3)n2)cc1 [Compound 906] | – | 76 to 100
68 | Fc1ccccc1CNc1nc(OCc2cc(Cl)cc(Cl)c2)ncc1F [Compound 907] | 51 to 75 | 76 to 100
69 | Fc1cnc(OCc2ccc(Cl)cc2)nc1NCCc1ccccc1 [Compound 908] | 76 to 100 | 76 to 100
70 | Fc1cnc(OCc2ccc(Cl)c(Cl)c2)nc1NC1CC1 [Compound 909] | – | 76 to 100
71 | Fc1cccc(COc2ncc(F)c(NCc3cccs3)n2)c1 [Compound 910] | – | 76 to 100
72 | Fc1cnc(OCCc2ccccc2)nc1NCc1ccc(Cl)cc1 [Compound 911] | 0 to 25 | 0 to 25
73 | Fc1cnc(OCc2cccc(Cl)c2)nc1NCc1cccs1 [Compound 912] | – | 76 to 100
74 | Fc1ccccc1CNc1nc(OCc2ccncc2)ncc1F [Compound 913] | 76 to 100 | 76 to 100
